Laboratory results as given in patent US20120040378A1, “Meprobromate Immunoassay” (RANDOX LABORATORIES LIMITED, priority 2010, published 2012).
Converted amounts (≈) assume the structure as drawn.

How the values were obtained:
[1] = system: Ig fractions of the antisera raised to Immunogen 4; test: Competitive ELISA with antibodies raised to Immunogen 4 (Randox immunoassay of the invention); format: binding, sheep; settings: for % CR: based on 100% specificity to meprobamate; for CR (cross-reactivity): relative to meprobamate = 100%
Protocol: An aqueous solution of Immunogen 4 was formulated with Freund's Complete Adjuvant (FCA) to form an emulsion consisting of 2 mg/ml immunogen in 50% (v/v) FCA. Three sheep were immunised with this emulsion (1° immunisation), 0.25 ml being intramuscularly injected at each of four sites in the rump of each animal. Subsequent immunizations (boosts) contained 1 mg/ml immunogen. All boosts were emulsified in 50% (v/v) Freund's Incomplete Adjuvant (FIA) and were administered in the same manner as the 1° immunisation, at monthly intervals for 1 year. Blood sampling took place 7 to 14 days after each boost. Each sample was processed to produce antiserum, which was further purified by caprylic acid and ammonium sulfate precipitation to yield an immunoglobulin (Ig) fraction. The Ig fraction was evaluated by competitive ELISA microtiter plate assay, as described in Example 16.
The wells of an enhanced binding 96 well polystyrene microtiter plate were coated with a mixture of the Ig fractions of the antisera raised to Immunogen 4, diluted in 10 mM Tris, pH8.5 (125 μl/well). The appropriate antibody coating dilution was determined using standard ELISA checkerboard techniques. The plate was incubated for 2 hours at 37° C., washed 4 times with Tris buffered saline containing Tween 20 (TBST) and tapped dry. Standard solutions of meprobamate, carisoprodol and mebutamate were prepared in TBST at 0, 0.1, 1.0, 5, 10, 25, 50 and 100 ng/ml, and 50 μl of each was added to the appropriate wells.
The conjugate prepared in Example 14 diluted in Tris buffer (pH 7.2) containing EDTA, D-mannitol, sucrose, thimerosal and BSA, was added to each of the wells. The appropriate dilution of conjugate was also determined using standard ELISA checkerboard techniques. The plate was incubated at 25° C. for 1 hour. Excess unbound conjugate was removed by washing 6 times over a 10 minute period with TBST. 125 μl of tetramethylbenzidine (TMB) substrate solution was added to each well of the plate that was then incubated for 20 minutes in the dark at room temperature. The reaction was terminated by addition of 125 μl 0.2M H2SO4 to each well. The absorbance was then measured at 450 nm using a microtiter plate reader.

[2] = system: carisoprodol-specific antibody raised from Immunogen 2; test: Immunoassay with carisoprodol-specific antibody raised from Immunogen 2 (Table 1); format: binding; settings: Table 1, antibody raised from Immunogen 2 as titled
[3] = system: Immunalysis immunoassay antibody; settings: Table 2, Immunalysis; data from Robertson and Marinetti, 2003; cited from earlier work
IDS immunoassay antibody = settings: Table 2, IDS commercial immunoassay; cited from earlier work
[4] = cited from earlier work
[5] = Table 2, Randox immunoassay, concentration producing 50% B/B0
[6] = competitive ELISA, Hapten-B-HRP conjugate, absorbance 450 nm, standard concentration producing 50% B/B0

Compound | % CR ([1]; Table 2, Randox immunoassay) [%] | IC50 [1, 5] [mg/L] | IC50 [1, 6] [mg/L] | CR (cross-reactivity) ([1]; competitive ELISA) [%] | % CR [2] [%] | IC50 [2] [mg/L] | % CR [3] [%] | IC50 [3] [mg/L] | % CR (IDS immunoassay antibody) [%] | IC50 (IDS immunoassay antibody) [mg/L] | serum half-life ([4]; serum) | time detectable in serum ([4]; serum, not detectable beyond this time (Olsen et al 1994)) [h] | excreted unchanged in urine ([4]; single orally administered carisoprodol tablet (350 mg)) | plasma half-life ([4]; plasma) [h] | excreted unchanged in the urine ([4]; urine)
CCCC(C)(COC(N)=O)COC(=O)NC(C)C (centres unmarked) [carisoprodol] | 57 | 0.015 | 0.01515 | 57 | 57 | 0.015 (≈ 0.0576 µM) | 100 | 0.025 (≈ 0.096 µM) | 100 | 0.0006 (≈ 0.0023 µM) | under 2 hours | ≤ 12 | less than 1% | – | –
CCC(C)C(C)(COC(N)=O)COC(N)=O (centres unmarked) [mebutamate] | – | – | – | 7 | – | – | – | – | – | – | – | – | – | – | –
CCCC(C)(COC(N)=O)COC(N)=O [meprobamate] | 100 | 0.008 | 0.00864 | 100 | 100 | 0.008 (≈ 0.0367 µM) | 19 | 0.132 (≈ 0.605 µM) | <0.01 | >6 | – | – | – | 6 to 16 | 10-12%
